According to patent US6680330B2, “Rapamycin dialdehydes” (Wyeth, priority 2001, dated 2004):
Values after ≈ are worked out from the molar mass of the structure shown.

Tests used:
Type in all cases: cell-based
[1] = test system: 3T3 (ovarian) tumor cell line; experiment: Antineoplastic activity, tumor cell growth inhibition (sulforhodamine B), 3T3; conditions: 48 hours; for Antineoplastic Activity IC50: 3T3 cells
Source text: (§1) Antineoplastic activity for the compounds of this invention was confirmed by evaluating the antineoplastic activity of representative compounds of this invention (Examples 1-5) against six tumor cell lines in vitro. Briefly, tumor cells from six cell lines were placed in wells of a 96 well microtiter plate. The following tumor cell lines were used: 3T3 (ovarian), 3T3/H2N (ovarian—resistant to cis-platin), A431 (vulva epidermoid origin), SW620 (colon), SKBR3 (breast), and MDA-435 (breast). The tumors cells were grown in the presence of serial dilutions of the compound to be evaluated for 48 hours, and cell growth determined using a colorimetric procedure (sulforhrodamine B). The inhibition of growth was calculated compared to the number of cells at the time of test compound addition.

[2] = test system: 3T3/H2N (ovarian—resistant to cis-platin) tumor cell line; experiment: Antineoplastic activity, tumor cell growth inhibition (sulforhodamine B), 3T3/H2N; conditions: 3T3/H2N cells, 48 hours
Source text: as §1

[3] = test system: A431 (vulva epidermoid origin) tumor cell line; experiment: Antineoplastic activity, tumor cell growth inhibition (sulforhodamine B), A431; conditions: 48 hours; for Antineoplastic Activity IC50: A431 cells
Source text: as §1

[4] = test system: SKBR3 (breast) tumor cell line; experiment: Antineoplastic activity, tumor cell growth inhibition (sulforhodamine B), SKBR3; conditions: 48 hours; for Antineoplastic Activity IC50: SKBR3 cells
Source text: as §1

[5] = test system: MDA-435 (breast) tumor cell line; experiment: Antineoplastic activity, tumor cell growth inhibition (sulforhodamine B), MDA-435; conditions: MDA435 cells, 48 hours
Source text: as §1

[6] = test system: SW620 (colon) tumor cell line; experiment: Antineoplastic activity, tumor cell growth inhibition (sulforhodamine B), SW620; conditions: 48 hours; for Antineoplastic Activity IC50: SW620 cells
Source text: as §1

SH-SY5Y cells = experiment: Neurite outgrowth (neuroregeneration) test in SH-SY5Y cells; conditions: aphidicolin 5 days, mean ± SEM
Source text: The neuroregeneration activity for the compounds of this invention was confirmed in a standard pharmacological test procedure by evaluating rapamycin dialdehyde (Example 1) and rapamycin 29-enol (Example 2), as representative compounds of this invention, against SH-SY5Y cells in vitro [Gold et al., Exp Neurol 147: 269-278, 1997]. Briefly, SH-SY5Y cells were placed in 6-well plate treated with aphidicolin for 5 days followed by the test compounds using 6-well plates. For controls, wells were untreated, or treated with nerve growth factor (NGF) alone. Test wells were treated with NGF plus Example 1 and Example 2, or rapamycin. Cells were photographed at 168 hours. Analysis of neuritic lengths was performed on photographic prints using a Houston Instrument HI-PAD digitizing tablet connected to an IBM XT computer with appropriate software (Bioquant IV, R&M Biometrics, Nashville, Tenn.). Mean values for axonal areas were compared using by ANOVA (STATVIEW, Abacus Concepts, Inc., Berkeley, Calif.). The following table summarizes the results that were obtained.

| Compound | Antineoplastic Activity IC50 [1] | Antineoplastic Activity IC50 [2] | Antineoplastic Activity IC50 [3] | Antineoplastic Activity IC50 [4] | Antineoplastic Activity IC50 [5] | Antineoplastic Activity IC50 [6] | Mean Neurite Length after 168 h (SH-SY5Y cells; test compound plus NGF) | IC50 ([1]; Mus musculus, NIH3T3, 3T3 cells) | IC50 [2] | IC50 ([3]; Homo sapiens, A-431, A431 cells) | IC50 ([4]; Homo sapiens, SK-BR-3, SKBR3 cells) | IC50 [5] | IC50 ([6]; Homo sapiens, SW-620, SW620 cells) | Mean Neurite Length after 168 h (SH-SY5Y cells; NGF alone) |
| --- | --- | --- | --- | --- | --- | --- | --- | --- | --- | --- | --- | --- | --- | --- |
| 42-O-(2-Hydroxy)Ethyl Rapamycin 29-enol [Example V] | >5 µg/mL | 4.96 µg/mL | >5 µg/mL | 2.69 µg/mL | >5 µg/mL | >5 µg/mL |  |  |  |  |  |  |  |  |
| 42-O-(2-Hydroxy)Ethyl Rapamycin Dialdehyde [IV] | 1.5 µg/mL | 0.72 µg/mL | 2.64 µg/mL | 0.36 µg/mL | 1.1 µg/mL | 3.04 µg/mL |  |  |  |  |  |  |  |  |
| CO[C@@H](C[C@@H]1CC[C@@H](C)[C@](O)(C(=O)C(=O)N2CCCC[C@H]2C(=O)OC(CC(=O)[C@H](C)/C=C(\C)[C@@H](O)[C@@H](OC)C(=O)[C@H](C)C[C@H](C)/C=C/C=O)[C@H](C)C[C@@H]2CC[C@@H](O)[C@H](OC)C2)O1)/C(C)=C/C=O (stereo partly drawn) [Example I, Rapamycin Dialdehyde] |  |  |  |  |  |  | 229.8 ± 9.5 (n = 141) μm | 0.72 µg/mL (≈ 0.761 µM) | 0.68 µg/mL (≈ 0.719 µM) | 0.91 µg/mL (≈ 0.962 µM) | 0.52 µg/mL (≈ 0.55 µM) | 1.23 µg/mL (≈ 1.3 µM) | 1.41 µg/mL (≈ 1.49 µM) |  |
| NGF: nerve growth factor, used alone as control and together with test compounds |  |  |  |  |  |  |  |  |  |  |  |  |  | 196.5 ± 7.7 (n = 112) μm |
| Rapamycin 29-Enol [Example II] | >5 µg/mL | >5 µg/mL | >5 µg/mL | >5 µg/mL | >5 µg/mL | >5 µg/mL | 239.7 ± 10.0 (n = 155) μm |  |  |  |  |  |  |  |
